From PubChem BioAssay AID330 (DTP/NCI, 2004) come the findings set out here.

This test has as its system P388 leukemia ip, CD2F1 mice, survival T/C. Description: NCI In Vivo Anticancer Drug Screen. Data for tumor model P388 Leukemia (intraperitoneal) in CD2F1 (CDF1) mice. As to conditions: endpoint: median survival time, higher = longer survival. In outline: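 Mice carrying the transplanted tumor received test compound or vehicle. Survival was recorded in each group, and the value is the treated-group measurement divided by that of the vehicle-treated control group.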

Setting [1] is: dose: 50.0 mg/kg/injection, schedule: Q01DX005 (ip), vehicle: Klucel (hydroxypropylcellulose) (HPC).
Setting [2] is: dose: 100.0 mg/kg/injection, schedule: Q01DX005 (ip), vehicle: Klucel (hydroxypropylcellulose) (HPC).
[3] abbreviates: dose: 200.0 mg/kg/injection, schedule: Q01DX005 (ip), vehicle: Klucel (hydroxypropylcellulose) (HPC).
Setting [4] is: dose: 50.0 mg/kg/injection, schedule: Q01DX005 (ip), vehicle: saline with Tween-80.
The mark [5] stands for this setting: dose: 100.0 mg/kg/injection, schedule: Q01DX005 (ip), vehicle: saline with Tween-80.
The mark [6] stands for this setting: dose: 200.0 mg/kg/injection, schedule: Q01DX005 (ip), vehicle: saline with Tween-80.
Setting [7] is: dose: 200.0 mg/kg/injection, schedule: Q01DX009 (ip), vehicle: saline with Tween-80.
[8] abbreviates: dose: 60.0 mg/kg/injection, schedule: Q01DX005 (ip), vehicle: saline with Tween-80.
Where [9] appears, read: dose: 120.0 mg/kg/injection, schedule: Q01DX005 (ip), vehicle: saline with Tween-80.
Setting [10] is: dose: 240.0 mg/kg/injection, schedule: Q01DX005 (ip), vehicle: saline with Tween-80.
The mark [11] stands for this setting: dose: 50.0 mg/kg/injection, schedule: Q01DX009 (ip), vehicle: saline with Tween-80.
The mark [12] stands for this setting: dose: 100.0 mg/kg/injection, schedule: Q01DX009 (ip), vehicle: saline with Tween-80.
The mark [13] stands for this setting: dose: 100.0 mg/kg/injection, schedule: Q04DX003 (ip), vehicle: saline.

Values joined by “and” are separate entries in the source; they are usually repeats but may differ in a detail not shown here. Identical values can stand only once. Toxic doses and inconclusive results are not listed.

Turning to `c1ccc(-c2[nH]c3cc4c(cc3c2-c2ccccc2)Oc2ccccc2O4)cc1`, the T/C was 116 % of control (dose: 17.5 mg/kg/injection, schedule: Q01DX009 (ip), vehicle: Klucel (hydroxypropylcellulose) (HPC)); 113 % of control (dose: 35.0 mg/kg/injection, schedule: Q01DX009 (ip), vehicle: Klucel (hydroxypropylcellulose) (HPC)); 104 % of control (dose: 70.0 mg/kg/injection, schedule: Q01DX009 (ip), vehicle: Klucel (hydroxypropylcellulose) (HPC)).

As for `O=C(c1cccc(C(=O)N2CCCC2)n1)N1CCCC1`, the T/C is, setting by setting: (dose: 60.0 mg/kg/injection, schedule: Q01DX005 (ip), vehicle: saline) 102 % of control; (dose: 120.0 mg/kg/injection, schedule: Q01DX005 (ip), vehicle: saline) 102 % of control; (dose: 240.0 mg/kg/injection, schedule: Q01DX005 (ip), vehicle: saline) 109 % of control.

For the compound `COc1ccc(C(=O)C(CCC(=O)c2ccc(O)cc2)S(C)(=O)=O)cc1` (stereo not drawn), the T/C reads like this: under setting [1], 100 % of control; under setting [2], 93 % of control; under setting [3], 96 % of control.

With `CCC1OCC(C(Cl)CCl)O1` (stereo not drawn), the T/C runs as follows: under setting [4], 102 % of control; under setting [5], 111 % of control; (dose: 132.0 mg/kg/injection, schedule: Q01DX009 (ip), vehicle: saline with Tween-80) 100 % of control; under setting [6], 103 % of control; under setting [7], 118 % of control; (dose: 300.0 mg/kg/injection, schedule: Q01DX009 (ip), vehicle: saline with Tween-80) 118 % of control.

As for `COc1ccc(/C=N/NC(=O)C(O)c2ccccc2)cc1` (stereo not drawn), the T/C was 99 % of control under setting [8], 90 % of control under setting [9] and 91 % of control under setting [10].

Turning to `CCOC(=O)C1(C(=O)OCC)COC(C)(C)OC1`, the T/C is 105 % of control (dose: 12.5 mg/kg/injection, schedule: Q01DX009 (ip), vehicle: saline with Tween-80); 101 % of control and 97 % of control (dose: 25.0 mg/kg/injection, schedule: Q01DX009 (ip), vehicle: saline with Tween-80); 102 % of control and 106 % of control under setting [11]; 106 % of control and 108 % of control under setting [12]; 100 % of control under setting [13]; 98 % of control and 103 % of control under setting [7]. Moreover, the T/C reads like this: (dose: 200.0 mg/kg/injection, schedule: Q04DX003 (ip), vehicle: saline) 101 % of control; (dose: 400.0 mg/kg/injection, schedule: Q04DX003 (ip), vehicle: saline) 100 % of control; (dose: 600.0 mg/kg/injection, schedule: Q04DX003 (ip), vehicle: saline) 101 % of control.

`S=C(Nc1ccccc1)Nc1ccc(N(CCCl)CCCl)cc1`: the T/C was 106 % of control (dose: 100.0 mg/kg/injection, schedule: Q04DX003 (ip), vehicle: Klucel (hydroxypropylcellulose) (HPC)); 114 % of control (dose: 200.0 mg/kg/injection, schedule: Q04DX003 (ip), vehicle: Klucel (hydroxypropylcellulose) (HPC)); 111 % of control (dose: 400.0 mg/kg/injection, schedule: Q04DX003 (ip), vehicle: Klucel (hydroxypropylcellulose) (HPC)).

Turning to `Clc1ccc(CSSC(Cl)(Cl)Cl)cc1`, the T/C is, setting by setting: (dose: 50.0 mg/kg/injection, schedule: Q01DX005 (ip), vehicle: acetone) 102 % of control; (dose: 100.0 mg/kg/injection, schedule: Q01DX005 (ip), vehicle: acetone) 105 % of control; (dose: 200.0 mg/kg/injection, schedule: Q01DX005 (ip), vehicle: acetone) 107 % of control.

In the case of `Nc1nc(-c2cccc3ccccc23)cc2ccccc12`, the T/C is 124 % of control (dose: 12.5 mg/kg/injection, schedule: Q01DX009 (ip), vehicle: water); 150 % of control (dose: 100.0 mg/kg/injection, schedule: Q01DX009 (ip), vehicle: water); 166 % of control (dose: 200.0 mg/kg/injection, schedule: Q01DX009 (ip), vehicle: water).

Turning to `COC(=O)C1(F)C(=O)NC(=O)NC1OC` (stereo not drawn), the T/C runs as follows: (dose: 30.0 mg/kg/injection, schedule: Q04DX002 (ip), vehicle: Klucel (hydroxypropylcellulose) (HPC)) 117 % of control; (dose: 60.0 mg/kg/injection, schedule: Q04DX002 (ip), vehicle: Klucel (hydroxypropylcellulose) (HPC)) 118 % of control and 123 % of control; (dose: 240.0 mg/kg/injection, schedule: Q04DX002 (ip), vehicle: Klucel (hydroxypropylcellulose) (HPC)) 157 % of control; (dose: 480.0 mg/kg/injection, schedule: Q04DX002 (ip), vehicle: Klucel (hydroxypropylcellulose) (HPC)) 164 % of control.

Take `CSc1ccc2ns[s+]c2c1`: the T/C under setting [4] is 104 % of control, the T/C under setting [5] was 102 % of control and the T/C under setting [6] is 101 % of control.

In the case of `CCOP(=O)(OCC)Oc1cnn(C)c(=O)c1SCC`, where the note is “dose: 0.78 mg/kg/injection, schedule: Q01DX005 (ip), vehicle: saline”, the T/C is 98 % of control.

Take `O=C(O)C(=O)c1ccc(-c2ccccc2)cc1`: the T/C runs as follows: (dose: 50.0 mg/kg/injection, schedule: Q04DX003 (ip), vehicle: saline) 104 % of control; under setting [13], 100 % of control.

Take `CC(=O)Nc1cc([N+]#N)ccc1S(=O)(=O)O`: the T/C is, setting by setting: under setting [11], 109 % of control; under setting [12], 93 % of control; under setting [7], 89 % of control.

As for `Cc1nc2ncn(-c3ccccc3)c2c(=O)n1-c1cccnc1`, the T/C under setting [1] was 105 % of control, the T/C under setting [2] is 110 % of control and the T/C under setting [3] was 110 % of control.

Turning to `CCCCCCCC/C=C\CCCCCCCC(=O)NCCCN(C)C`, the T/C by setting is: (dose: 12.5 mg/kg/injection, schedule: Q01DX009 (ip), vehicle: saline) 98 % of control; (dose: 25.0 mg/kg/injection, schedule: Q01DX009 (ip), vehicle: saline) 91 % of control; under setting [11], 112 % of control.

In the case of `Cc1cc(N=Cc2c(CO)cnc(C)c2O)c(N=Cc2c(CO)cnc(C)c2O)cc1C.[Zn]`, the T/C runs as follows: under setting [4], 100 % of control; under setting [5], 99 % of control; under setting [6], 100 % of control.

Turning to `CCn1c(=O)c2[nH]c(Cl)nc2n(CC)c1=O`, the T/C is 91 % of control (dose: 25.0 mg/kg/injection, schedule: Q04DX003 (ip), vehicle: water); 103 % of control (dose: 50.0 mg/kg/injection, schedule: Q04DX003 (ip), vehicle: water); 112 % of control (dose: 100.0 mg/kg/injection, schedule: Q04DX003 (ip), vehicle: water).

For `COc1ccc(C23OCN(c4ccccc4)C2(c2ccc(OC)cc2)c2ccccc2N3C)cc1` (stereo not drawn), the T/C was 103 % of control under setting [8], 100 % of control under setting [9] and 94 % of control under setting [10].

On to `C=Cc1cncc2c1CCOC2=O`, for which the T/C is, setting by setting: (dose: 3.75 mg/kg/injection, schedule: Q01DX005 (ip), vehicle: Klucel (hydroxypropylcellulose) (HPC)) 86 % of control; (dose: 7.5 mg/kg/injection, schedule: Q01DX005 (ip), vehicle: Klucel (hydroxypropylcellulose) (HPC)) 93 % of control; (dose: 30.0 mg/kg/injection, schedule: Q01DX005 (ip), vehicle: Klucel (hydroxypropylcellulose) (HPC)) 86 % of control.

As to `O=C1C(c2ccccc2)C2NC(C1c1ccccc1)C([N+](=O)[O-])C=C2[N+](=O)[O-]` (stereo not drawn), the T/C is, setting by setting: (dose: 25.0 mg/kg/injection, schedule: Q01DX001 (ip), vehicle: Klucel (hydroxypropylcellulose) (HPC)) 94 % of control; (dose: 50.0 mg/kg/injection, schedule: Q01DX001 (ip), vehicle: Klucel (hydroxypropylcellulose) (HPC)) 90 % of control.

On to `OCCN(CCO)C1c2ccccc2-c2ccccc21`, for which the T/C reads like this: under setting [4], 98 % of control; under setting [5], 89 % of control; under setting [6], 90 % of control.

As for `CSc1ccc(NC(=S)SCc2ccc(Cl)cc2)cc1Cl`, the T/C by setting is: (dose: 50.0 mg/kg/injection, schedule: Q01DX009 (ip), vehicle: suspension in saline) 108 % of control; (dose: 100.0 mg/kg/injection, schedule: Q01DX009 (ip), vehicle: suspension in saline) 117 % of control; (dose: 200.0 mg/kg/injection, schedule: Q01DX009 (ip), vehicle: suspension in saline) 116 % of control.

As to `CCCCCCCCCCCCCCOC(=O)c1ccc(O)cc1`, the T/C was 94 % of control (dose: 50.0 mg/kg/injection, schedule: Q01DX009 (ip), vehicle: Klucel (hydroxypropylcellulose) (HPC)); 101 % of control (dose: 100.0 mg/kg/injection, schedule: Q01DX009 (ip), vehicle: Klucel (hydroxypropylcellulose) (HPC)); 89 % of control (dose: 200.0 mg/kg/injection, schedule: Q01DX009 (ip), vehicle: Klucel (hydroxypropylcellulose) (HPC)).
